Measurements as given in US10858367B2, “Compounds” (GLAXOSMITHKLINE INTELLECTUAL PROPERTY DEVELOPMENT LIMITED, priority 2017, dated 2020).

The compounds below were run against T1, LRRK2 Ser935 phosphorylation in SH-SY5Y cells over-expressing recombinant full length LRRK2 (Homo sapiens, UniProt Q5S007) (assay: Recombinant cellular LRRK2 AlphaScreen assay). Conditions: human neuroblastoma SH-SY5Y cells, BacMam full length LRRK2, 60 minutes with compound, read-out: pIC50 in the recombinant cellular LRRK2 AlphaScreen assay (converted).
T1 construct: A BacMam virus expressing full length recombinant LRRK2 was purchased from Invitrogen; host or cells: SH-SY5Y human neuroblastoma cells transduced with BacMam LRRK2 virus
T1 sequence (Q5S007 whole entry): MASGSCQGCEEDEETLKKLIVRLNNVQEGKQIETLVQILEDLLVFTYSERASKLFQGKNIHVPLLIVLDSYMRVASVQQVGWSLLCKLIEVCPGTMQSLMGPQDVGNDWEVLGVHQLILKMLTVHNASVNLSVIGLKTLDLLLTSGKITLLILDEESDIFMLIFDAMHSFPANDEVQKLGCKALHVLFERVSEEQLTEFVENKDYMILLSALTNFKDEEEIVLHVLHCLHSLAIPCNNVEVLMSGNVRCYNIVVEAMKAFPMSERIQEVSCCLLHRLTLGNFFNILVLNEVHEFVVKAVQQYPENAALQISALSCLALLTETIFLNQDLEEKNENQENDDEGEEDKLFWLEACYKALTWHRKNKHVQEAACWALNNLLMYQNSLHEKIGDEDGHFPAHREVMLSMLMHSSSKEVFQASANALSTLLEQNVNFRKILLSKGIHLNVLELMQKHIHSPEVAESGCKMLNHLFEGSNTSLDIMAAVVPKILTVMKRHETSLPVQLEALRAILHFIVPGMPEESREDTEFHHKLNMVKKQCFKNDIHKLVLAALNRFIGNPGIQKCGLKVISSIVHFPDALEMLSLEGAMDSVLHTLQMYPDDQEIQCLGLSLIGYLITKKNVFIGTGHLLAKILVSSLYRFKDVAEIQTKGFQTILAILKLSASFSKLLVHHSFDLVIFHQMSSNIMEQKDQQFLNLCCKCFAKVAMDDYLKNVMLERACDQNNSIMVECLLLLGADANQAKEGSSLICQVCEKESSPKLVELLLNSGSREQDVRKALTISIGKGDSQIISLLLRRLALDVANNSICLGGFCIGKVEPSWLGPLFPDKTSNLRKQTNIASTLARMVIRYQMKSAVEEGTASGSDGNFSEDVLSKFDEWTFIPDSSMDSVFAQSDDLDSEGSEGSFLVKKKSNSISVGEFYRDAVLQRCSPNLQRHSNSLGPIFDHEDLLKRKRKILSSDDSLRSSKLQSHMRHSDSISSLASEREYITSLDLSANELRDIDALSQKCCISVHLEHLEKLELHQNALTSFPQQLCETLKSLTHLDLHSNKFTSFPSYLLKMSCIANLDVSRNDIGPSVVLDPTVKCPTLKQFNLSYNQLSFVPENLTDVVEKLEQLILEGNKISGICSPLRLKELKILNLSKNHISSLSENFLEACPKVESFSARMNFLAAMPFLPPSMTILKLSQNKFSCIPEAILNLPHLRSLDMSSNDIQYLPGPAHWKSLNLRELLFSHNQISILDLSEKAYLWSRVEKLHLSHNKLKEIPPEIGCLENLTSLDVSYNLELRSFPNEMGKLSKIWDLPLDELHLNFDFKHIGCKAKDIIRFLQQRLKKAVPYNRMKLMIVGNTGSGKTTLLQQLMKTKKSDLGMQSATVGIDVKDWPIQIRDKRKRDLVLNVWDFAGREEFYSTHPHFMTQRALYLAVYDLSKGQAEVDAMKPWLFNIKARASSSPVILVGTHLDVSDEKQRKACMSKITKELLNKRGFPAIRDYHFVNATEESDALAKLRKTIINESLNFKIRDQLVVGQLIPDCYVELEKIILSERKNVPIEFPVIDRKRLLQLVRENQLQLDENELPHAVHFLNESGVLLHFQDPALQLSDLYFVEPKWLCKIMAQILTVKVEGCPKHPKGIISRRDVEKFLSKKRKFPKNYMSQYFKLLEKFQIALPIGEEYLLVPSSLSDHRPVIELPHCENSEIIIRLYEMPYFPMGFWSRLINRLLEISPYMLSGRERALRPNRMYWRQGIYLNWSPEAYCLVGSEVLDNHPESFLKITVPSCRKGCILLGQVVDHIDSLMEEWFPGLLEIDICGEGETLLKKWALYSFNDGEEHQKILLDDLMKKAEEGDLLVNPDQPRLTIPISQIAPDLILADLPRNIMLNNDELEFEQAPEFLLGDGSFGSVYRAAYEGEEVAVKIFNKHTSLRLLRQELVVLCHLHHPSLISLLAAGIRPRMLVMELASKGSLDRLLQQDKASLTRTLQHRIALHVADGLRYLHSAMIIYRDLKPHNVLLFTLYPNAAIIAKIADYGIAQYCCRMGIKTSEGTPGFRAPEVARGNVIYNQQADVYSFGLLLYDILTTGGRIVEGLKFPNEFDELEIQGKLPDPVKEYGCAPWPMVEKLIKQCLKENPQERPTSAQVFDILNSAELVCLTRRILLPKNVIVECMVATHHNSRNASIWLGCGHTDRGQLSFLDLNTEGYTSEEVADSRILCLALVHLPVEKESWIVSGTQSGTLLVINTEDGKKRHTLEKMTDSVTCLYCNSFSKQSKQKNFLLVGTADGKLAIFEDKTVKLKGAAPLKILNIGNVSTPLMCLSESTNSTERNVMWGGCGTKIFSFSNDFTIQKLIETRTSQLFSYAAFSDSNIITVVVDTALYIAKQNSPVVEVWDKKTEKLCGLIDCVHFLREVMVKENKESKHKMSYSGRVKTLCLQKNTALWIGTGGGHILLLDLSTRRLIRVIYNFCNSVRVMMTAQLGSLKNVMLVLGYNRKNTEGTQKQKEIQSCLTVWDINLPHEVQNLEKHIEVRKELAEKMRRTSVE
Type: cell-based
In short: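 SH-SY5Y cells transduced with BacMam full-length human LRRK2 (MOI 50) for 24 h, then treated with compound (top final 10 μM) for 60 min at 37° C. Lysate pSer935 LRRK2 quantified by AlphaScreen using anti-pS935 and total-LRRK2 antibodies. Values from sigmoidal dose-response fit.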
For `Cc1nc(N2C[C@H]3C[C@@H]2CO3)cc(-n2ncc3cc(C)c(C4CCN(C5CCOC5)CC4F)cc32)n1` (single isomer, unassigned) [Example E149], the IC50 was at most 1000 nM. `Cc1nc(N2C[C@H]3C[C@@H]2CO3)cc(-n2ncc3cc(C)c(C4C5CN(CCS(C)(=O)=O)CC54)cc32)n1` (stereo partly drawn) [Example E180, (1R,4R)-5-(2-methyl-6-(5-methyl-6-(3-(2-(methylsulfonyl)ethyl)-3-azabicyclo[3.1.0]hexan-6-yl)-1H-indazol-1-yl)pyrimidin-4-yl)-2-oxa-5-azabicyclo[2.2.1]heptane] was tested, and the IC50 was at most 1000 nM. With `Cc1nc(N2CC3CC2CO3)cc(-n2ncc3cc(C)c(C4CCN(CCO)CC4F)cc32)n1` (single isomer, unassigned) [Example E23] the IC50 was at most 1000 nM. `Cc1nc(N2CC3CC(C2)C3C(=O)O)cc(-n2ncc3cc(C)c(C4CCC(C)(O)CC4)cc32)n1` (single isomer, unassigned) [Example E78, Cis-3-{6-[6-(4-Hydroxy-4-methyl-cyclohexyl)-5-methyl-indazol-1-yl]-2-methyl-pyrimidin-4-yl}-3-aza-bicyclo[3.1.1]heptane-6-carboxylic Acid] showed an IC50 of at most 10 nM. `COc1nc(N2C[C@H]3C[C@@H]2CO3)cc(-n2ncc3cc(Cl)c(C4CCN(C5COC5)CC4)cc32)n1` [Example E5, (1R,4R)-5-(6-(5-chloro-6-(1-(oxetan-3-yl)piperidin-4-yl)-1H-indazol-1-yl)-2-methoxypyrimidin-4-yl)-2-oxa-5-azabicyclo[2.2.1]heptane] gave an IC50 of at most 10 nM. In the case of `Cc1nc(N2C[C@H]3C[C@@H]2CO3)cc(-n2ncc3cc(C)c(C4CCN(C(=O)CO)CC4)cc32)n1` [Example E53, 1-(4-(1-(6-((1R,4R)-2-oxa-5-azabicyclo[2.2.1]heptan-5-yl)-2-methylpyrimidin-4-yl)-5-methyl-1H-indazol-6-yl)piperidin-1-yl)-2-hydroxyethanone], the IC50 is reported as at most 1000 nM. For `COc1nc(N2C[C@H]3C[C@@H]2CO3)cc(-n2ncc3cc(C)c(C4CCN(C5CCOC5)CC4)cc32)n1` (single isomer, unassigned) [Example E13], the IC50 was at most 1000 nM. `Cc1nc(N2C[C@H]3C[C@@H]2CN3C2COC2)cc(-n2ncc3cc(C)c([C@H]4CC[C@](C)(O)CC4)cc32)n1` [Example E31, Trans-1-methyl-4-(5-methyl-1-(2-methyl-6-((1R,4R)-5-(oxetan-3-yl)-2,5-diazabicyclo[2.2.1]heptan-2-yl)pyrimidin-4-yl)-1H-indazol-6-yl)cyclohexanol] was tested, and the IC50 was 1070 nM. `Cc1nc(N2C[C@@H]3C[C@H]2CO3)cc(-n2ncc3cc(Cl)c(C4CCN(C5COC5)CC4)cc32)n1` [Example E26, (1S,4S)-5-(6-(5-chloro-6-(1-(oxetan-3-yl)piperidin-4-yl)-1H-indazol-1-yl)-2-methylpyrimidin-4-yl)-2-oxa-5-azabicyclo[2.2.1]heptane] showed an IC50 of at most 1000 nM. `COCCN1CCC(c2cc3c(cnn3-c3cc(N4C[C@@H]5C[C@H]4CO5)nc(OC)n3)cc2C)CC1` [Example E36, (1S,4S)-5-(2-methoxy-6-(6-(1-(2-methoxyethyl)piperidin-4-yl)-5-methyl-1H-indazol-1-yl)pyrimidin-4-yl)-2-oxa-5-azabicyclo[2.2.1]heptane] was tested, and the IC50 was at most 1000 nM.

These compounds were tested against T2, full length G2019 human LRRK2 (Homo sapiens, UniProt Q5S007, R50H) (assay: Full length G2019 human LRRK2 Inhibition Mass Spectrometry assay). Conditions: 25 nM LRRK2 enzyme, 25 uM LRRKtide, 2 mM ATP; RapidFire mass spectrometry; read-out: pIC50 in the full length G2019 human LRRK2 Inhibition Mass Spectrometry assay (converted).
T2 construct: made in house; host or cells: HEK293 6E cells transduced with BacMam virus (virus generated in Sf9 cells)
T2 sequence (Q5S007 with tags, fused parts or gaps R50H): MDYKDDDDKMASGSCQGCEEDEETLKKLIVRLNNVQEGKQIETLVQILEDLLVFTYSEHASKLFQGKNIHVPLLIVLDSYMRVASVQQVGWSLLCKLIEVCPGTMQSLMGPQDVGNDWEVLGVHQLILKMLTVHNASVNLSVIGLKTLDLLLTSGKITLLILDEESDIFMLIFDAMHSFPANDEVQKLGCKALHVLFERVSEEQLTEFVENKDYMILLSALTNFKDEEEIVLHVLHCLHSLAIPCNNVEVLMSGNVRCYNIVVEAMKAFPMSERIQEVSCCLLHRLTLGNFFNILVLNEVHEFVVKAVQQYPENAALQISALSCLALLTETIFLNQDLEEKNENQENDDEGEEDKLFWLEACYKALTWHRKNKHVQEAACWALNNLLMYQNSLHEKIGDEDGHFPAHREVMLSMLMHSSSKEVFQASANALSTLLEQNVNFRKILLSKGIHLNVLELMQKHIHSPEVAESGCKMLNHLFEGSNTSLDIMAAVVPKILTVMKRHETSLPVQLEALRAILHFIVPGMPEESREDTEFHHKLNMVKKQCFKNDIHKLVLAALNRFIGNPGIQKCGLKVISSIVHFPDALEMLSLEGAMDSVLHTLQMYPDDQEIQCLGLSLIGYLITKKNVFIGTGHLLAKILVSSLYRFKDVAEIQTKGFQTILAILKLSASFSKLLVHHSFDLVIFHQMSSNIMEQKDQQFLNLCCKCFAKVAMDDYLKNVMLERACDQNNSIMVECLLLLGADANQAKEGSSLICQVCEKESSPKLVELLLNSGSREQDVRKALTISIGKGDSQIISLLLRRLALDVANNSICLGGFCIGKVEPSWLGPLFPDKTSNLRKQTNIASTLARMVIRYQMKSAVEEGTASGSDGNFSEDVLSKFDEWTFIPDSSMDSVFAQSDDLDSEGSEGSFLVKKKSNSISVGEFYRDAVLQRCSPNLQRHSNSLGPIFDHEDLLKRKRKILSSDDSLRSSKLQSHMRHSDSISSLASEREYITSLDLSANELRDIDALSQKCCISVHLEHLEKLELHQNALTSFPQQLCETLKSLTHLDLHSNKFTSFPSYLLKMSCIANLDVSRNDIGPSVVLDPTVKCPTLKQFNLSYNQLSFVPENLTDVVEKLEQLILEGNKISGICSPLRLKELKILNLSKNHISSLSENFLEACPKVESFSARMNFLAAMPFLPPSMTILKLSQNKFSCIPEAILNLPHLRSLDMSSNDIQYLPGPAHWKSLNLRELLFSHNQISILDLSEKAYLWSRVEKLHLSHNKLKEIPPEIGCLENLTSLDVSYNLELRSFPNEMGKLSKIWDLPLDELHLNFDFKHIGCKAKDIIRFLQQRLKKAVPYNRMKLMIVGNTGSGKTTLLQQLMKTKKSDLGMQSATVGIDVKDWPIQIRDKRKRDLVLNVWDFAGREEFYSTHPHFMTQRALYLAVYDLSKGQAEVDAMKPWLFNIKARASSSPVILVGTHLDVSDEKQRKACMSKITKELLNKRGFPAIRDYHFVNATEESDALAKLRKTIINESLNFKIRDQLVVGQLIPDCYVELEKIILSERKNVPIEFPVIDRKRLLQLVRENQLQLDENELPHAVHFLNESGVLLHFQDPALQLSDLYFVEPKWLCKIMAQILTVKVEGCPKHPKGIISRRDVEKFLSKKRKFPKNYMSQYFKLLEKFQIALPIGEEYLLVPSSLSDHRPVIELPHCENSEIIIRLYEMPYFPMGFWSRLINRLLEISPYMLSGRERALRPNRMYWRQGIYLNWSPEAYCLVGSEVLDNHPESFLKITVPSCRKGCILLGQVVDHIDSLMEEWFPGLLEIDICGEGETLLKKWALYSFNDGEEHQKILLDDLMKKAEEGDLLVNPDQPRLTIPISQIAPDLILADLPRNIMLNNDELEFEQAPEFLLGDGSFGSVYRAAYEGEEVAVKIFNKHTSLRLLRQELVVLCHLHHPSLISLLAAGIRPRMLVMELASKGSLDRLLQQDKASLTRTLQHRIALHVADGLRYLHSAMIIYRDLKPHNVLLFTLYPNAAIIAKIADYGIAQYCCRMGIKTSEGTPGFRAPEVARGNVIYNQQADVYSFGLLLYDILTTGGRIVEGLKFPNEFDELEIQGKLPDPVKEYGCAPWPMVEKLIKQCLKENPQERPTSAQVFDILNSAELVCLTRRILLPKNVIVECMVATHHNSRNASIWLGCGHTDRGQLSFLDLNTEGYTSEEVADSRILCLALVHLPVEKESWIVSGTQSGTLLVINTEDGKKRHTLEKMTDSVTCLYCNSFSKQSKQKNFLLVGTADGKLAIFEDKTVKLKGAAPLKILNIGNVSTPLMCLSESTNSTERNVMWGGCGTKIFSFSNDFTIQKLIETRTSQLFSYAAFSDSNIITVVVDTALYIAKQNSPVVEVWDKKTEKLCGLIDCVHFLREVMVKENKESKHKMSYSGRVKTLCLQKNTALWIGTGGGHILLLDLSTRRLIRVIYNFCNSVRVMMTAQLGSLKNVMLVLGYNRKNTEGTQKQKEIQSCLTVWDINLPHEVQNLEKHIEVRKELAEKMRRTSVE
Type: biochemical
Text: a. Full Length G2019 Human LRRK2 Inhibition Mass Spectrometry Assay
This assay for Leucine Rich Repeat Kinase 2 (LRRK2) inhibition is based on the direct measurement of the peptide ‘LRRKtide’ (LRRKtide: RLGRDKYKT*LRQIRQ and “*” refers to the site of phosphorylation.) and phosphorylated ‘LRRKtide’ using a high throughput RapidFire mass spectrometry assay. Inhibitors are compounds that reduce the conversion of LRRKtide to phospho-LRRKtide.
Human G2019 LRRK2 Plasmid Preparation
Primers used for PCR cloning: • pHTBV-F:SEQ ID No: 1 • LRRK2 wt-F1:SEQ ID No: 2 • LRRK2 wt-R1: SEQ ID No: 3 • LRRK2 wt-F2: SEQ ID No: 4 • LRRK2 wt-R2: SEQ ID No: 5 • LRRK2 wt-F3:SEQ ID No: 6 • pHTBV-R: SEQ ID No: 7 pHTBV1-N-Flag-hu LRRK2 was generated by PCR amplifying the full length LRRK2 sequence with N terminal Flag tag from pcDNA3.1(+)_Human_LRRK2 (NCBI Reference Sequence: NP_940980.3) with the primers described above, and cloned into pHTBV1mcs3 vector between BamHI and KpnI sites.
The G2019 full length Flag-LRRK2 coding sequence is SEQ ID No: 8.
The translated amino acid sequence for human G2019 full length N terminal flag tagged LRRK2 protein is SEQ ID No: 9.
Protein Expression & Purification a) Expression of Flag Tagged Full Length G2019 Human LRRK2
HEK293 6E cells were incubated in a 37° C. incubator with a humidified atmosphere of 5% CO2 on an orbital shaker rotating at 110 rpm. On the day of transduction, the cell viability was higher than 98% and the cell density was in the range of 1×10^6˜1.5×10^6 cells/ml. HEK293 6E cells were centrifuged at 1,000 rpm for 10 min, and then the cells were resuspended in fresh Freestyle 293 expression medium (Invitrogen: 12338) with 0.1% F-68(Invitrogen: 24040-032) but without antibiotics (G418) at density of 1×10^6 cells/ml. BacMam virus with Flag-hu LRRK2 (genotypically normal) gene was centrifuged at 40,000 g for 2 hours, then resuspended in fresh Freestyle 293 expression medium. The resuspended virus was added into the cells in at MOI of 10. The cells were incubated in a 37° C. incubator with a humidified atmosphere of 5% CO2 in air on an orbital shaker rotating at 110 rpm. Cultures were harvested at approximately 48 hours post-transduction by centrifugation at 4,000 rpm for 20 min and pellets were frozen for purification. […]
b) Purification of Flag Tagged Full Length G2019 Human LRRK2
The suspended cells were lysed by sonication on ice for 30 min (2 secs on/4 sec off, 20% amplitude), and centrifuged at 10,000 rpm for 30 minutes at 4° C. The supernatant was incubated with 1 mL per litre of cell culture of anti-Flag magnetic beads (Sigma-Aldrich: M8823) at 4° C. for 3 hours, then the beads were washed by 5 mL (5 column volume) binding buffer (50 mM Tris pH7.5@ 4 C, 500 mM NaCl, 0.5 mM EDTA, 0.1% TritonX-100, 10% glycerol, freshly add 2 mM DTT) for three times. The Flag tagged LRRK2 proteins were eluted by Elution buffer (50 mM Tris pH7.5@ 4 C, 500 mM NaCl, 0.5 mM EDTA, 0.1% TritonX-100, 10% glycerol, freshly add 2 mM DTT, 250 ug/ml Flag peptide (Sigma-Aldrich:F3290)) at 4° C. for 2 hours. Flag peptide was removed by Zeba Spin Desalting Columns, 7K MWCO (Thermo-Fisher: 89893) and the buffer of eluted LRRK2 proteins was exchanged into Storage Buffer (50 mM Tris pH7.5@4 C, 150 mM NaCl, 0.5 mM EDTA, 0.02% Triton X-100, 2 mM DTT and 50% Glycerol) using Amicon Ultra Centrifugal Filter Units (100 kD) (Merck: UFC910096). Fractions containing LRRK2 proteins were pooled, aliquoted and stored at −80° C. Protein concentration was determined by Bradford protein assay, and protein purity was analyzed by NuPAG Novex 4-12% Bis-Tris Protein Gels (Invitrogen: NP0322BOX).
Assay Protocol • 1) A 10 mM test compound was dissolved in 100% DMSO and serially diluted 1 in 4. 100 nL of this dilution series was then added to a 384 well, v bottom polypropylene plate, excluding columns 6 and 18. 100 nL of DMSO was added to columns 6 and 18 as controls wells. […]
Compound `Cc1nc(N2CC3(CO)CC2CO3)cc(-n2ncc3cc(C)c(C4CCN(C5COC5)CC4)cc32)n1` (centres unmarked) [Example E166, (5-(2-methyl-6-(5-methyl-6-(1-(oxetan-3-yl)piperidin-4-yl)-1H-indazol-1-yl)pyrimid-in-4-yl)-2-oxa-5-azabicyclo[2.2.1]heptan-1-yl)methanol] has an IC50 of at most 100 nM. `COC(=O)CCN1CCC(c2cc3c(cnn3-c3cc(N4C[C@@H]5C[C@H]4CO5)nc(C)n3)cc2C)CC1` [Example E163, Methyl 3-(4-(1-(6-((1S,4S)-2-oxa-5-azabicyclo[2.2.1]heptan-5-yl)-2-methylpyrimidin-4-yl)-5-methyl-1H-indazol-6-yl)piperidin-1-yl)propanoate] was tested, and the IC50 was at most 100 nM. `Cc1nc(N2C[C@@]3(CO)C[C@@H]2CO3)cc(-n2ncc3cc(C)c(C4CCN([C@H]5CCOC5)CC4)cc32)n1` [Example E142, ((1R,4R)-5-(2-methyl-6-(5-methyl-6-(1-((S)-tetrahydrofuran-3-yl)piperidin-4-yl)-1H-indazol-1-yl)pyrimidin-4-yl)-2-oxa-5-azabicyclo[2.2.1]heptan-1-yl)methanol] showed an IC50 of at most 100 nM. Work on `Cc1nc(N2C[C@@H]3C[C@H]2CO3)cc(-n2ncc3cc(C)c(C4CCN(CCC(=O)O)CC4F)cc32)n1` (single isomer, unassigned) [Example E156] yielded an IC50 of at most 100 nM. Work on `Cc1nc(N2CC3(CO)CC2CO3)cc(-n2ncc3cc(C)c(C4CCN(C5CCOC5)CC4)cc32)n1` (single isomer, unassigned) [Example E152, (5-(2-methyl-6-(5-methyl-6-(1-(tetrahydrofuran-3-yl)piperidin-4-yl)-1H-indazol-1-yl)pyrimidin-4-yl)-2-oxa-5-azabicyclo[2.2.1]heptan-1-yl)methanol] yielded an IC50 of at most 100 nM. Compound `Cc1nc(N2C[C@H]3C[C@@H]2CO3)cc(-n2ncc3cc(C)c(C4CCN(CCS(C)(=O)=O)CC4)cc32)n1` [Example E170, (1R,4R)-5-(2-methyl-6-(5-methyl-6-(1-(2-(methylsulfonyl)ethyl)piperidin-4-yl)-1H-indazol-1-yl)pyrimidin-4-yl)-2-oxa-5-azabicyclo[2.2.1]heptane] has an IC50 of at most 100 nM. `Cc1nc(N2C[C@H]3C[C@@H]2CO3)cc(-n2ncc3cc(C)c(C4CCN(C5COCC5O)CC4)cc32)n1` (single isomer, unassigned) [Example E171] showed an IC50 of at most 100 nM. Work on `Cc1nc(N2C[C@@H]3C[C@H]2CO3)cc(-n2ncc3cc(C)c(C4CCN(C5CCOC5)CC4F)cc32)n1` (single isomer, unassigned) [Example E150] yielded an IC50 of at most 100 nM. `Cc1nc(N2C[C@@]3(CO)C[C@@H]2CO3)cc(-n2ncc3cc(C)c(C4CCOCC4)cc32)n1` [Example E173, ((1R,4R)-5-(2-methyl-6-(5-methyl-6-(tetrahydro-2H-pyran-4-yl)-1H-indazol-1-yl)pyrimidin-4-yl)-2-oxa-5-azabicyclo[2.2.1]heptan-1-yl)methanol] gave an IC50 of at most 100 nM. Work on `COc1nc(N2CC3CC2CO3)cc(-n2ncc3cc(C)c(C4CCN(C5COC5)CC4O)cc32)n1` (single isomer, unassigned) [Example E133] yielded an IC50 of at most 100 nM.
